The text below walks through data of US8637550B2, “Heteroaryl diamide compounds useful as MMP-13 inhibitors” (Boehringer Ingelheim International GmbH, priority 2008, dated 2014).

What is called IC50 is the concentration at which inhibition is half-maximal. Higher therefore signals lower potency.

For this test, the target named is MMP-13 (Homo sapiens, UniProt P45452). In words: EnzoLyte 520 Generic MMP Assay Kit, 5-FAM/QXL520 FRET peptide substrate. The class given is biochemical. An excerpt: The EnzoLyte™ 520 Generic MMP Assay Kit (AnaSpec Inc.) can detect the activity of several MMPs including MMP-1, 2, 3, 7, 8, 9, 13, and 14. This kit uses a 5-FAM/QXL™520 fluorescence resonance energy transfer (FRET) peptide as an MMP substrate.

For the compound `CNC(=O)[C@@H](NC(=O)c1ccc(-c2cccc(CNC(=O)c3ccn(C(F)F)n3)c2)o1)C(C)C` [1-Difluoromethyl-1H-pyrazole-3-carboxylic acid 3-[5-((S)-2-methyl-1-methylcarbamoyl-propylcarbamoyl)-furan-2-yl]-benzylamide], half-maximal inhibition (IC50) required 14 nM.
Take `CNC(=O)[C@@H](NC(=O)c1ccc(-c2cccc(CNC(=O)c3cc(C(F)(F)F)n(C)n3)c2)o1)C(C)C` [1-Methyl-5-trifluoromethyl-1H-pyrazole-3-carboxylic acid 3-[5-((S)-2-methyl-1-methylcarbamoyl-propylcarbamoyl)-furan-2-yl]-benzylamide]: it took 39 nM to reach half-maximal inhibition (IC50).
With `CNC(=O)[C@@H](NC(=O)c1ccc(-c2cccc(CNC(=O)C3CCCCN3C)c2)o1)C(C)C` (stereo partly drawn) [1-Methyl-N-[3-(5-{[(1S)-2-methyl-1-(methylcarbamoyl)propyl]carbamoyl}-2-furyl)benzyl]piperidine-2-carboxamide] the figure was 300 nM; with `CNC(=O)[C@@H](NC(=O)c1ccc(-c2cccc(CNC(=O)C3CCCN(C)C3)c2)o1)C(C)C` (stereo partly drawn) [1-Methyl-N-[3-(5-{[(1S)-2-methyl-1-(methylcarbamoyl)propyl]carbamoyl}-2-furyl)benzyl]piperidine-3-carboxamide], 215 nM; with `CNC(=O)[C@@H](NC(=O)c1ccc(-c2cccc(CNC(=O)[C@@H]3CCCN3C)c2)o1)C(C)C` [1-methyl-N-[3-(5-{[(1S)-2-methyl-1-(methylcarbamoyl)propyl]carbamoyl}-2-furyl)benzyl]-L-prolinamide], 380 nM.
With `CC[C@H](C)[C@H](NC(=O)c1csc(-c2ccc(Cl)cc2)n1)C(=O)NC` [2-(4-Chloro-phenyl)-thiazole-4-carboxylic acid ((1S,2S)-2-methyl-1-methylcarbamoyl-butyl)-amide] the figure was 380 nM; with `CNC(=O)[C@@H](NC(=O)c1csc(-c2ccc(Cl)cc2)n1)C1CCCCC1` [2-(4-Chlorophenyl)-N-[(1S)-1-cyclohexyl-2-(methylamino)-2-oxoethyl]-1,3-thiazole-4-carboxamide], 470 nM.
In turn, `CNC(=O)[C@@H](NC(=O)c1ccc(-c2cccc(CNC(=O)c3ccnc(Cl)n3)c2)o1)C(C)C` [2-Chloro-N-[3-(5-{[(1S)-2-methyl-1-(methylcarbamoyl)propyl]carbamoyl}-2-furyl)benzyl]pyrimidine-4-carboxamide] registered an IC50 of 9 nM. This IC50 is about 52-fold lower than that of the compound before.
The compound `CNC(=O)[C@@H](NC(=O)c1ccc(-c2cccc(CNC(=O)OCC(C)C)c2)o1)C1CCCCC1` [2-Methylpropyl [3-(5-{[(1S)-1-cyclohexyl-2-(methylamino)-2-oxoethyl]carbamoyl}furan-2-yl)benzyl]carbamate] returned an IC50 of 240 nM. This IC50 lies about 27-fold higher than the previous one.
In turn, `CNC(=O)[C@@H](NC(=O)c1ccc(-c2cccc(CNC(=O)c3cc(C)no3)c2)o1)C(C)C` [3-Methyl-isoxazole-5-carboxylic acid 3-[5-((S)-2-methyl-1-methylcarbamoyl-propylcarbamoyl)-furan-2-yl]-benzylamide] gave an IC50 of 280 nM. This IC50 and that of the compound before are within 1.5-fold of each other.
With `CNC(=O)[C@@H](NC(=O)c1ccc(-c2cccc(CNC(=O)c3nc(C(F)(F)F)cs3)c2)o1)C(C)C` [4-Trifluoromethyl-thiazole-2-carboxylic acid 3-[5-((S)-2-methyl-1-methylcarbamoyl-propylcarbamoyl)-furan-2-yl]-benzylamide], the IC50 was 6 nM. This IC50 lies about 47-fold lower than the previous one.
`CNC(=O)[C@@H](NC(=O)c1ccc(-c2ccc(-c3ccnc(C)c3)cn2)o1)C(C)C` [5-(2′-Methyl-[3,4′]bipyridinyl-6-yl)-furan-2-carboxylic acid ((S)-2-methyl-1-methylcarbamoyl-propyl)-amide] returned an IC50 of 110 nM.
With `CNC(=O)[C@@H](NC(=O)c1ccc(-c2cccc(CNC(=O)NC(C)(C)C)c2)o1)C1CCCCC1` [5-(3-{[(tert-Butylcarbamoyl)amino]methyl}phenyl)-N-[(1S)-1-cyclohexyl-2-(methylamino)-2-oxoethyl]furan-2-carboxamide] the figure was 105 nM.
For `CNC(=O)[C@@H](NC(=O)c1ccc(-c2ccc(Br)cc2)o1)C1CCCCC1` [5-(4-Bromophenyl)-N-[(1S)-1-cyclohexyl-2-(methylamino)-2-oxoethyl]furan-2-carboxamide], the IC50 amounted to 395 nM.
For the compound `CC[C@H](C)[C@H](NC(=O)c1ccc(-c2ccc(Cl)cc2)o1)C(=O)NC` [5-(4-Chloro-phenyl)-furan-2-carboxylic acid ((1S,2S)-2-methyl-1-methylcarbamoyl-butyl)-amide], half-maximal inhibition (IC50) was put at 300 nM.
For `CNC(=O)[C@@H](NC(=O)c1ccc(-c2ccc(Cl)cc2)o1)C1CCCC1` [5-(4-Chlorophenyl)-N-[(1S)-1-cyclopentyl-2-(methylamino)-2-oxoethyl]furan-2-carboxamide] the value was 465 nM.
For `CNC(=O)[C@@H](NC(=O)c1ccc(-c2ccc(Cl)cc2)o1)C1CCNCC1` [5-(4-Chlorophenyl)-N-[(1S)-2-(methylamino)-2-oxo-1-(piperidin-4-yl)ethyl]furan-2-carboxamide] the value was 430 nM; for `CNC(=O)[C@@H](NC(=O)c1ccc(-c2ccc(Cl)cc2)o1)C1CCCCC1` [5-(4-chlorophenyl)-N-[(1S)-1-cyclohexyl-2-(methylamino)-2-oxoethyl]furan-2-carboxamide], 475 nM; for `CCNC(=O)[C@@H](NC(=O)c1ccc(-c2ccc(C#N)cc2)o1)C1CCCCC1` [5-(4-cyanophenyl)-N-[(1S)-1-cyclohexyl-2-(ethylamino)-2-oxoethyl]furan-2-carboxamide], 295 nM.
For `CNC(=O)[C@@H](NC(=O)c1ccc(-c2ccc(C#N)cc2)o1)C1CCCCC1` [5-(4-cyanophenyl)-N-[(1S)-1-cyclohexyl-2-(methylamino)-2-oxoethyl]furan-2-carboxamide] the value was 175 nM; for `C[C@@H](CO)NC(=O)[C@@H](NC(=O)c1ccc(-c2ccc(C#N)cc2)o1)C1CCCCC1` [5-(4-cyanophenyl)-N-[(1S)-1-cyclohexyl-2-{[(2S)-1-hydroxypropan-2-yl]amino}-2-oxoethyl]furan-2-carboxamide], 195 nM.
The compound `COC[C@H](C)NC(=O)[C@@H](NC(=O)c1ccc(-c2ccc(C#N)cc2)o1)C1CCCCC1` [5-(4-cyanophenyl)-N-[(1S)-1-cyclohexyl-2-{[(2S)-1-methoxypropan-2-yl]amino}-2-oxoethyl]furan-2-carboxamide] registered an IC50 of 195 nM.
For `CNC(=O)[C@@H](NC(=O)c1ccc(-c2ccc(C#N)cc2)o1)C1CCOCC1` [5-(4-cyanophenyl)-N-[(1S)-2-(methylamino)-2-oxo-1-(tetrahydro-2H-pyran-4-yl)ethyl]furan-2-carboxamide] the value was 90 nM; for `N#Cc1ccc(-c2ccc(C(=O)N[C@H](C(=O)NCCO)C3CCCCC3)o2)cc1` [5-(4-cyanophenyl)-N-{(1S)-1-cyclohexyl-2-[(2-hydroxyethyl)amino]-2-oxoethyl}furan-2-carboxamide], 100 nM.
`CC(O)CNC(=O)[C@@H](NC(=O)c1ccc(-c2ccc(C#N)cc2)o1)C1CCCCC1` (stereo partly drawn) [5-(4-cyanophenyl)-N-{(1S)-1-cyclohexyl-2-[(2-hydroxypropyl)amino]-2-oxoethyl}furan-2-carboxamide] showed an IC50 of 170 nM.
Compound `COCCNC(=O)[C@@H](NC(=O)c1ccc(-c2ccc(C#N)cc2)o1)C1CCCCC1` [5-(4-cyanophenyl)-N-{(1S)-1-cyclohexyl-2-[(2-methoxyethyl)amino]-2-oxoethyl}furan-2-carboxamide] registered an IC50 of 74 nM.
For `CNC(=O)[C@@H](NC(=O)c1ccc(-c2ccc(-c3ccc(C(F)(F)F)cc3)cc2)o1)C1CCCCC1` [5-(4′-Trifluoromethyl-biphenyl-4-yl)-furan-2-carboxylic acid ((S)-cyclohexyl-methylcarbamoyl-methyl)-amide] the value was 373 nM.
With `CNC(=O)[C@@H](NC(=O)c1ccc(-c2ccc(OCc3ccccc3)cn2)o1)C(C)(C)O` [5-(5-Benzyloxy-pyridin-2-yl)-furan-2-carboxylic acid ((S)-2-hydroxy-2-methyl-1-methylcarbamoyl-propyl)-amide] the figure was 18 nM; with `CNC(=O)[C@@H](NC(=O)c1ccc(-c2ccc(OCc3ccccc3)cn2)o1)C(C)C` [5-(5-Benzyloxy-pyridin-2-yl)-furan-2-carboxylic acid ((S)-2-methyl-1-methylcarbamoyl-propyl)-amide], 18 nM; with `CNC(=O)[C@@H](NC(=O)c1ccc(-c2ccc(Cl)cn2)o1)C1CCCCC1` [5-(5-Chloropyridin-2-yl)-N-[(1S)-1-cyclohexyl-2-(methylamino)-2-oxoethyl]furan-2-carboxamide], 245 nM.
For `CNC(=O)[C@@H](NC(=O)c1ccc(-c2ccc(C#N)cn2)o1)C1CCCCC1` [5-(5-Cyanopyridin-2-yl)-N-[(1S)-1-cyclohexyl-2-(methylamino)-2-oxoethyl]furan-2-carboxamide] the value was 69 nM; for `CNC(=O)[C@@H](NC(=O)c1ccc(-c2ccc(-c3ccccc3)cn2)o1)C(C)C` [5-(5-Phenyl-pyridin-2-yl)-furan-2-carboxylic acid ((S)-2-methyl-1-methylcarbamoyl-propyl)-amide], 79 nM.
In turn, `CNC(=O)[C@@H](NC(=O)c1ccc(-c2cccc(CNC(=O)c3cc(Br)n(C)n3)c2)o1)C(C)C` [5-Bromo-1-methyl-1H-pyrazole-3-carboxylic acid 3-[5-((S)-2-methyl-1-methylcarbamoyl-propylcarbamoyl)-furan-2-yl]-benzylamide] registered an IC50 of 13 nM.
Compound `CNC(=O)[C@@H](NC(=O)c1ccc(-c2ccc(NC(=O)c3cn4c(C#N)cccc4n3)cc2)o1)C1CCCCC1` [5-Cyano-N-[4-(5-{[(1S)-1-cyclohexyl-2-(methylamino)-2-oxoethyl]carbamoyl}furan-2-yl)phenyl]imidazo[1,2-a]pyridine-2-carboxamide] gave an IC50 of 103 nM.
Regarding `CNC(=O)[C@@H](NC(=O)c1ccc(-c2cccc(CNC(=O)c3cc(C(F)(F)F)n[nH]3)c2)o1)C(C)C` [5-Trifluoromethyl-2H-pyrazole-3-carboxylic acid 3-[5-((S)-2-methyl-1-methylcarbamoyl-propylcarbamoyl)-furan-2-yl]-benzylamide], inhibition was half-maximal at 160 nM (IC50).
